Data: the supplement of paper PMC10627819

Columns and labels:
B. subtilis 168 = assay: Bliss interaction score (quartile over a dose matrix) (fitness difference); higher = more antagonism (negative = synergy)
In short: (§1)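 Fitness is OD595 at stationary-phase entry relative to the plate's robust no-drug mean, capped at 1. Single-drug fitness was inferred from combinations. The Bliss score is observed minus product-expected fitness, summarised by quartiles over technical, biological and donor/recipient replicates.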

S. pneumoniae D39V [1] = assay: as above
In short: as §1

S. aureus Newman = assay: as above
In short: as §1

S. aureus DSM 20231 = assay: as above
In short: as §1

S. pneumoniae D39V [2] = assay: fitness (endpoint OD595 vs no drug) (fraction); higher = more growth
In short: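 Fitness compares growth at the stationary-phase transition with the robust mean of no-drug control wells, as a ratio of optical densities. The ratio is capped at 1. Wells of 384-well plates held 30 µl, or 55 µl for S. pneumoniae, inoculated at OD595 0.01. Readings at OD595 every 30 min for 14 h at 37 °C were corrected against the first reading.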
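Wherever Bliss interaction score (quartile over a dose matrix) is given: first quartile when negative (synergy) and third quartile when positive (antagonism).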

C[C@@H](O)[C@H]1C(=O)N2C(C(=O)O)=C(SCCNC=N)C[C@H]12 [Imipenem] + Cc1cc(NS(=O)(=O)c2ccc(N)cc2)no1 [Sulfamethoxazol]
Details	Bliss interaction score
B. subtilis 168	0.0891
S. aureus DSM 20231	-0.0317
S. aureus Newman	-0.0488
S. pneumoniae D39V [1]	0.066

fitness, S. pneumoniae D39V [2], one replicate
Details	first compound 0.005 µg/mL	first compound 0.01 µg/mL	first compound 0.02 µg/mL
partner 1 µg/mL	0.993	0.998	0.959
partner 2 µg/mL	0.957	0.924	0.982
partner 4 µg/mL	0.879	0.856	0.859

fitness, S. pneumoniae D39V [2]
Details	first compound 0.0065 µg/mL	first compound 0.013 µg/mL	first compound 0.026 µg/mL
partner 1 µg/mL	0.96	0.923	0.82
partner 2 µg/mL	0.976	0.932	0.925
partner 4 µg/mL	0.976	0.941	0.917

C[C@@H](O)[C@H]1C(=O)N2C(C(=O)O)=C(SCCNC=N)C[C@H]12 [Imipenem] + Cc1ncc([N+](=O)[O-])n1CCO [Metronidazole]
Details	Bliss interaction score
B. subtilis 168	0.0502
S. aureus DSM 20231	0.0365
S. aureus Newman	-0.0547
S. pneumoniae D39V [1]	0.0768

fitness, S. pneumoniae D39V [2]
Details	first compound 0.005 µg/mL	first compound 0.0065 µg/mL	first compound 0.01 µg/mL	first compound 0.013 µg/mL	first compound 0.02 µg/mL	first compound 0.026 µg/mL
partner 1.073 µg/mL	0.961	–	0.945	–	0.919	–
partner 1.25 µg/mL	–	0.991	–	0.995	–	0.985
partner 2.145 µg/mL	0.872	–	0.737	–	0.886	–
partner 2.5 µg/mL	–	0.988	–	≥ 1	–	0.984
partner 4.29 µg/mL	0.908	–	0.903	–	0.903	–
partner 5 µg/mL	–	0.99	–	0.969	–	0.961

C[C@@H](O)[C@H]1C(=O)N2C(C(=O)O)=C(SCCNC=N)C[C@H]12 [Imipenem] + Cc1onc(-c2ccccc2)c1C(=O)N[C@@H]1C(=O)N2[C@@H]1SC(C)(C)[C@@H]2C(=O)O [Oxacillin]
Details	Bliss interaction score
B. subtilis 168	-0.048
S. aureus DSM 20231	-0.0527
S. aureus Newman	0.0474
S. pneumoniae D39V [1]	0.0736

fitness, S. pneumoniae D39V [2]
Details	first compound 0.005 µg/mL	first compound 0.0065 µg/mL	first compound 0.01 µg/mL	first compound 0.013 µg/mL	first compound 0.02 µg/mL	first compound 0.026 µg/mL
partner 0.01 µg/mL	0.963	0.968	0.983	0.996	0.95	0.956
partner 0.02 µg/mL	0.92	0.845	0.933	0.902	0.905	0.812
partner 0.04 µg/mL	0.524	0.0658	0.511	0.171	0.468	0.109

C[C@@H](O)[C@H]1C(=O)N2C(C(=O)O)=C(SCCNC=N)C[C@H]12 [Imipenem] + Clc1ccc(COC(Cn2ccnc2)c2ccc(Cl)cc2Cl)c(Cl)c1 [Miconazole]
Details	Bliss interaction score
B. subtilis 168	-0.0815
S. aureus DSM 20231	0.0412
S. aureus Newman	-0.0307
S. pneumoniae D39V [1]	0.0759

fitness, S. pneumoniae D39V [2]
Details	first compound 0.005 µg/mL	first compound 0.0065 µg/mL	first compound 0.01 µg/mL	first compound 0.013 µg/mL	first compound 0.02 µg/mL	first compound 0.026 µg/mL
partner 1.073 µg/mL	≥ 1	–	≥ 1	–	≥ 1	–
partner 1.25 µg/mL	–	0.877	–	0.869	–	0.72
partner 2.145 µg/mL	≥ 1	–	0.998	–	0.99	–
partner 2.5 µg/mL	–	0.892	–	0.907	–	0.761
partner 4.29 µg/mL	0.955	–	0.95	–	0.882	–
partner 5 µg/mL	–	0.908	–	0.947	–	0.886

C[C@@H](O)[C@H]1C(=O)N2C(C(=O)O)=C(SCCNC=N)C[C@H]12 [Imipenem] + Cn1nnc(-c2ccc(-c3ccc(N4C[C@H](CO)OC4=O)cc3F)cn2)n1 [Tedizolid]
Details	Bliss interaction score
B. subtilis 168	0.21
S. aureus DSM 20231	-0.0424
S. aureus Newman	0.0821
S. pneumoniae D39V [1]	-0.17

fitness, S. pneumoniae D39V [2]
Details	first compound 0.005 µg/mL	first compound 0.0065 µg/mL	first compound 0.01 µg/mL	first compound 0.013 µg/mL	first compound 0.02 µg/mL	first compound 0.026 µg/mL
partner 0.03125 µg/mL	0.922	–	0.917	–	0.913	–
partner 0.0625 µg/mL	0.958	–	0.949	–	0.993	–
partner 0.125 µg/mL	0.829	0.68	0.795	0.758	0.82	0.553
partner 0.25 µg/mL	–	0.553	–	0.607	–	0.578
partner 0.5 µg/mL	–	0.125	–	0.161	–	0.151

C[C@@H](O)[C@H]1C(=O)N2C(C(=O)O)=C(SCCNC=N)C[C@H]12 [Imipenem] + O=C1CN(/N=C/c2ccc([N+](=O)[O-])o2)C(=O)N1 [Nitrofurantoin]
Details	Bliss interaction score
B. subtilis 168	0.0986
S. aureus DSM 20231	0.0253
S. aureus Newman	-0.0377
S. pneumoniae D39V [1]	0.049

fitness, S. pneumoniae D39V [2]
Details	first compound 0.005 µg/mL	first compound 0.0065 µg/mL	first compound 0.01 µg/mL	first compound 0.013 µg/mL	first compound 0.02 µg/mL	first compound 0.026 µg/mL
partner 1.285 µg/mL	0.947	–	0.967	–	0.97	–
partner 2 µg/mL	–	0.931	–	0.882	–	0.842
partner 2.57 µg/mL	0.946	–	0.944	–	0.955	–
partner 4 µg/mL	–	0.912	–	0.914	–	0.804
partner 8 µg/mL	–	0.763	–	0.728	–	0.72

S. pneumoniae D39V [2], partner 5.14 µg/mL, one replicate
Details	fitness
first compound 0.005 µg/mL	0.887
first compound 0.01 µg/mL	0.941
first compound 0.02 µg/mL	0.928
